Literature values as cited in paper PMC4536914 (Chembiochem : a European journal of chemical biology, 2012).

Biological target: Plk1 PBD (HA-EGFP-Plk1 in mitotic 293A cell lysates) (Homo sapiens, UniProt P53350)
Settings: previous work; ref [10]

Chain of Plk1 PBD (HA-EGFP-Plk1 in mitotic 293A cell lysates) (P53350 whole entry): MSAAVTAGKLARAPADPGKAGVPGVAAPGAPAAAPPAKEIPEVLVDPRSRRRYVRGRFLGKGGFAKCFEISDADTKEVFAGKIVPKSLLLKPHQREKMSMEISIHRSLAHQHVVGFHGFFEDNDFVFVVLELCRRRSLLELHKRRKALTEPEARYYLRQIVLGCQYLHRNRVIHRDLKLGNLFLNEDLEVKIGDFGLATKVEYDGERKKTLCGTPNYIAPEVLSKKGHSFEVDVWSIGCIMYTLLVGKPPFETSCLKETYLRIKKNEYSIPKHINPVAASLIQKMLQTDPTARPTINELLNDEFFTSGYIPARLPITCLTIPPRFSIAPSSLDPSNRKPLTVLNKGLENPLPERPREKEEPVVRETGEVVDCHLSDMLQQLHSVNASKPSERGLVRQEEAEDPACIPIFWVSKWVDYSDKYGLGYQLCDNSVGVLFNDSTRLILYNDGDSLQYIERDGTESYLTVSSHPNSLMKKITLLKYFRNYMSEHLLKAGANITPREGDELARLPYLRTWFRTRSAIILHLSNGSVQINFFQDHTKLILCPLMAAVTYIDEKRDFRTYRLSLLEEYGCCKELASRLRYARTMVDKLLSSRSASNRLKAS

Substance: LHSpT
- Plk1 PBD-binding affinity relative to parent peptide 1: significantly less Plk1 PBD-binding affinity than the parent peptide 1
